Test results taken from paper PMC5551460 (Cell chemical biology, 2017).
pIC50: −log10 of the molar value. One block for each compound: values may come before it.

Legend:
[1] = molecular target: DGKα (Rattus norvegicus, UniProt P51556); assay: ADP-Glo DAG phosphorylation assay in lysate; format: biochemical
[2] = molecular target: T1, FER (Homo sapiens, UniProt P16591); assay: free ATP competition with ATP acyl phosphate probe, SILAC LC-MS; format: cell-based
[3] = molecular target: T2, DGKκ (Homo sapiens, UniProt Q5KSL6); assay: free ATP; format: cell-based
T2 sequence (Q5KSL6 1-1271): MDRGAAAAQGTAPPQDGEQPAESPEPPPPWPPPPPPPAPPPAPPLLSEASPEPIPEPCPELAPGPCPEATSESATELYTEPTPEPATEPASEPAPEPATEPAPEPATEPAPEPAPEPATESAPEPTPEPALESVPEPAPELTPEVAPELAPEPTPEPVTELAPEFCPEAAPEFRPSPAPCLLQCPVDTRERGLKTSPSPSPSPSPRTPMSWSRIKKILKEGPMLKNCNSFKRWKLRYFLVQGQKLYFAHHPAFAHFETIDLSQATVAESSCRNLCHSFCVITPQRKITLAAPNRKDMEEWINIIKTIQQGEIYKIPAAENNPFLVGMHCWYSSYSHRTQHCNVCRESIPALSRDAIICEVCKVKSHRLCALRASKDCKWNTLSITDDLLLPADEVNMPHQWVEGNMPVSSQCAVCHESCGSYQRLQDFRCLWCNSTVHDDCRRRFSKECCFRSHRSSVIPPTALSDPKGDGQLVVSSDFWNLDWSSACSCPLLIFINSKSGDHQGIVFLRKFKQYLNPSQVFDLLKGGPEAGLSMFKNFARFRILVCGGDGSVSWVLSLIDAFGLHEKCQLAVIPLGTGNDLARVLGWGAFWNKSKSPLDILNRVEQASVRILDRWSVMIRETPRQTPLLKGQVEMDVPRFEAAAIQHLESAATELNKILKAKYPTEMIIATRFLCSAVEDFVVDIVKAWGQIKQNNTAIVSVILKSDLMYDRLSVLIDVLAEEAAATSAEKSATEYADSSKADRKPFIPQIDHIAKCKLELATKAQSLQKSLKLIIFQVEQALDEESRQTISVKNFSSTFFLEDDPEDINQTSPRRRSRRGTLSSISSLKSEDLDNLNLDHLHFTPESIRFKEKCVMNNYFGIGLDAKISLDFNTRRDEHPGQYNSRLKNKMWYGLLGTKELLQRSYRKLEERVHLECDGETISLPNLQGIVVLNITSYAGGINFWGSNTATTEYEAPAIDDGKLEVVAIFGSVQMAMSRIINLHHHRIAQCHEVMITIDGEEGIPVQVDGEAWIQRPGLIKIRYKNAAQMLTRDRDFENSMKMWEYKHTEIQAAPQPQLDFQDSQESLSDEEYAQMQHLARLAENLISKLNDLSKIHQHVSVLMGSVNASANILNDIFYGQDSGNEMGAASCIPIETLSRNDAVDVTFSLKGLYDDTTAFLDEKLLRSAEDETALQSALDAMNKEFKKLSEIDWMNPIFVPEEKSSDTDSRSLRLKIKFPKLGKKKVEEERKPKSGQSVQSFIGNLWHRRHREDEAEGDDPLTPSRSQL

[4] = molecular target: DGKζ (Homo sapiens, UniProt Q13574); assay: free ATP; format: cell-based
[5] = molecular target: T3, DGKθ (Homo sapiens, UniProt P52824); assay: free ATP; format: cell-based
T3 sequence (P52824 1-942): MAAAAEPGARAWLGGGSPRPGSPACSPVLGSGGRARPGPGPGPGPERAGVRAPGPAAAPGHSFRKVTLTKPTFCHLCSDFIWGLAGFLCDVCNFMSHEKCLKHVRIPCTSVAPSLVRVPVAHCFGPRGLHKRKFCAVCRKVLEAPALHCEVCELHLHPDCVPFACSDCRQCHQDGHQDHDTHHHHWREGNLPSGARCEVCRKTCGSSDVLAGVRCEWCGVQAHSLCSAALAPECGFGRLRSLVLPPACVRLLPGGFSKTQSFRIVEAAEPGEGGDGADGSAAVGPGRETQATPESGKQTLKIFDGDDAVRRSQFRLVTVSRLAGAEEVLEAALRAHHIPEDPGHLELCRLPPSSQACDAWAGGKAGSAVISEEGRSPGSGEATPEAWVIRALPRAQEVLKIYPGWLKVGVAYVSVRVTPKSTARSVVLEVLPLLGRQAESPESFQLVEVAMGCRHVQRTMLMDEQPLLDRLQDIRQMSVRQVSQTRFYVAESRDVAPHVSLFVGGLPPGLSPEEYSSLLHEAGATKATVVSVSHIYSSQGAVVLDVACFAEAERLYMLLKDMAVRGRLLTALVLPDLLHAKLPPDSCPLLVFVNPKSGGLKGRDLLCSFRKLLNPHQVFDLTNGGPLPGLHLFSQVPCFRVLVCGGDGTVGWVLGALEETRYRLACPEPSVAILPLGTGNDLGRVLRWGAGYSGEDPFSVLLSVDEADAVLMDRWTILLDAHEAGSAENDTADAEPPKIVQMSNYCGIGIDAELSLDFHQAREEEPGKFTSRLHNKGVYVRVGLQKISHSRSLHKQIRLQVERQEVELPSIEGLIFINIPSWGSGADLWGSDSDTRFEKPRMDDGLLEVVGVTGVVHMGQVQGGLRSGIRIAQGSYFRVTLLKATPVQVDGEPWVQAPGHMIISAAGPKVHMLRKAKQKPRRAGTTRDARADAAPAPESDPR

[6] = molecular target: T1, FER; assay: ATP acyl phosphate probe competition, SILAC LC-MS; format: cell-based

T1 sequence (P16591 whole entry): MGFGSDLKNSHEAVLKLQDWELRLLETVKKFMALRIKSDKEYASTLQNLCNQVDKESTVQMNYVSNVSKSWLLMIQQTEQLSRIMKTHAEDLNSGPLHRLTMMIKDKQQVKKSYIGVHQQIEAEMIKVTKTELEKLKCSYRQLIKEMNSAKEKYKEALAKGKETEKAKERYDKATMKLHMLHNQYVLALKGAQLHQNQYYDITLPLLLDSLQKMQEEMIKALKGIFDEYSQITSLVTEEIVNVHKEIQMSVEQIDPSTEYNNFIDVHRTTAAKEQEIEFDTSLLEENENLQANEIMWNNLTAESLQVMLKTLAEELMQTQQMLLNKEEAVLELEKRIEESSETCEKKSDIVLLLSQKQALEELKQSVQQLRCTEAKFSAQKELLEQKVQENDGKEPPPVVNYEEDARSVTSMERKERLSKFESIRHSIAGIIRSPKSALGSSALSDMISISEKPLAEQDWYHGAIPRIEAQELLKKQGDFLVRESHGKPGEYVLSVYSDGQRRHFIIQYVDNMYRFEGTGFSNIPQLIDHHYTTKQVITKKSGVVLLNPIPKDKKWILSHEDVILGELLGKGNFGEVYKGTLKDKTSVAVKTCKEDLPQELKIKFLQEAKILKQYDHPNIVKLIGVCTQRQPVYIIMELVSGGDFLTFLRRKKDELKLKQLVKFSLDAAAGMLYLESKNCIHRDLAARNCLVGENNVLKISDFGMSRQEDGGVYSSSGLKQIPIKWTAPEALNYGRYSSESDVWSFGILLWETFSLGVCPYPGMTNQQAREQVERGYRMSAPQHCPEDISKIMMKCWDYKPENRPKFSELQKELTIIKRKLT
DGKζ, sequence (Q13574 whole entry): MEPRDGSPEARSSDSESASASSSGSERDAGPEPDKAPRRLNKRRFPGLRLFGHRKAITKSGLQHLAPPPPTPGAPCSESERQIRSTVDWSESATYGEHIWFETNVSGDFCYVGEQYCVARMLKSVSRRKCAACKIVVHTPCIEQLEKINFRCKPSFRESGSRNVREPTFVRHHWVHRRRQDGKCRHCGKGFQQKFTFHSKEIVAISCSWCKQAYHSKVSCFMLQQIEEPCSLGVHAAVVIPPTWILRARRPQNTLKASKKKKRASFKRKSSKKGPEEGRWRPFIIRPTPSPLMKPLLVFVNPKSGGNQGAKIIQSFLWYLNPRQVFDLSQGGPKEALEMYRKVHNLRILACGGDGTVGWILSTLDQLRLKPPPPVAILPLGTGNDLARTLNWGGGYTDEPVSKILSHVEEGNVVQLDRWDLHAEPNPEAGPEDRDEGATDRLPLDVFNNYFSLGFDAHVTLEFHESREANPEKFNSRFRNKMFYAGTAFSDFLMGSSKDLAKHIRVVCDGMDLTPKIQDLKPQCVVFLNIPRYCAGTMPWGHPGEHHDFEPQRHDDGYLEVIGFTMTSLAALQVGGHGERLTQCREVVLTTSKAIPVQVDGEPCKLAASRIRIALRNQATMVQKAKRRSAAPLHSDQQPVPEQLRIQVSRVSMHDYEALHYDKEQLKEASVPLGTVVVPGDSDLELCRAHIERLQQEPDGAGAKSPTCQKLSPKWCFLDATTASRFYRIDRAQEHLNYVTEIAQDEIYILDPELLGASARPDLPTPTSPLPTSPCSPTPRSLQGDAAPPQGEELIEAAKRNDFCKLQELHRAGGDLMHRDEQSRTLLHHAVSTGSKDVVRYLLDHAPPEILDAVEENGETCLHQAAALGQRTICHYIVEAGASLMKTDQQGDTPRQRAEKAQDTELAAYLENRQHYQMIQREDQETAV
DGKα, sequence (P51556 whole entry): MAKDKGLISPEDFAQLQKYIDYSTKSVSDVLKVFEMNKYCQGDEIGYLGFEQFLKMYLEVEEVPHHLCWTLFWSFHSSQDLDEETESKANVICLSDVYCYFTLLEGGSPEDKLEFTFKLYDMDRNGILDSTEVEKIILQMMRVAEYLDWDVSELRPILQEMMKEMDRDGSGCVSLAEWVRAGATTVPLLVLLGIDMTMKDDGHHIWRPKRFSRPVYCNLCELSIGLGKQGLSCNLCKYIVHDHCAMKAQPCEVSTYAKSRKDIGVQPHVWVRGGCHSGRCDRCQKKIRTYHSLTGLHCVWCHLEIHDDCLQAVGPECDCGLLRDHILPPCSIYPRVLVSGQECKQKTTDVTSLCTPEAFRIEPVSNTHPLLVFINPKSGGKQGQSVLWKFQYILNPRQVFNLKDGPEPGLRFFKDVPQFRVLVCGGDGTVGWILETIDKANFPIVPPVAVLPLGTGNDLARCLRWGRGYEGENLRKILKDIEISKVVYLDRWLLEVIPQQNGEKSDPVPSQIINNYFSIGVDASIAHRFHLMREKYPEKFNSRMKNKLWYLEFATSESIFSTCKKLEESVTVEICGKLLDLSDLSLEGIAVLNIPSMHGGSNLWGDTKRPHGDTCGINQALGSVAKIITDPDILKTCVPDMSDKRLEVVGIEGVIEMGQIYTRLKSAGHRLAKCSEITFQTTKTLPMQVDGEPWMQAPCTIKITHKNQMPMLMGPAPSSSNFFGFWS

SMILES: Fc1ccc(C(=C2CCNCC2)c2ccc(F)cc2)cc1 [RF001]
pIC50 [1]: 3.65

SMILES: Nc1ncnc2c1ncn2[C@@H]1O[C@H](COP(=O)(O)OP(=O)(O)OP(=O)(O)O)[C@@H](O)[C@H]1O [ATP]
free ATP competition with ATP acyl phosphate probe, SILAC LC-MS [2]: 19.3 | free ATP (1 mM) competition with ATP acyl phosphate probe, SILAC LC-MS [3]: 15.0 | free ATP (1 mM) competition with ATP acyl phosphate probe, SILAC LC-MS [4]: 16.7 | free ATP (1 mM) competition with ATP acyl phosphate probe, SILAC LC-MS [5]: 14.4

ATP acyl phosphate probe competition, SILAC LC-MS (100 μM compound, SR = 7.9) [6]: 7.9
SMILES: Cc1nc2sccn2c(=O)c1CCN1CCC(=C(c2ccc(F)cc2)c2ccc(F)cc2)CC1 [ritanserin]
